Patent US4304861A, “Process of producing antibiotic SM-173B with Streptomyces chromofuscus” (Hoffmann-La Roche Inc., priority 1977, dated 1981)
Values after ≈ are worked out from the molar mass of the structure shown.

Tests used:
Aspergillus niger = test: Minimum Inhibitory Concentration (MIC), antibacterial spectrum; assay type: cell-based
Description: (§1) The antibacterial spectrum is evident from the following Table:
(§2) Minimum Inhibitory Concentration (MIC)
(§3) Test organism MIC (μg/ml)

Bacillus cereus = test: as above; assay type: cell-based
Description: as §1, §2, §3

Bacillus subtilis = test: as above; assay type: cell-based
Description: as §1, §2, §3

Echerichia coli = test: as above; assay type: cell-based
Description: as §1, §2, §3

Micrococcus flavus = test: as above; assay type: cell-based
Description: as §1, §2, §3

Mycobacterium avium = test: as above; assay type: cell-based
Description: as §1, §2, §3

[1] = test system: Mycobacterium rhodochrous; test: as above; assay type: cell-based
Description: as §1, §2, §3

Mycobacterium smegmatis = test: as above; assay type: cell-based; conditions: Mycolicibacterium smegmatis
Description: as §1, §2, §3

Penicillium citrinum = test: as above; assay type: cell-based
Description: as §1, §2, §3

Sarcina lutea = test: as above; assay type: cell-based; conditions: Micrococcus luteus
Description: as §1, §2, §3

[2] = test system: Staphylococcus aureus 209P; test: as above; assay type: cell-based
Description: as §1, §2, §3

[3] = test system: Staphylococcus epidermidis; test: as above; assay type: cell-based
Description: as §1, §2, §3

[4] = Toxicity, intraperitoneal administration to mice; conditions: mouse, in vivo, ip
Description: The LD50 is greater than 200 mg/kg in the case of intraperitoneal administration to mice.

Solubility = assay type: physicochemical
[5] = Acidity (physico-chemical properties); assay type: physicochemical
gram-positive bacteria = test: Antibiotic activity (summary of MIC table); assay type: cell-based; conditions: a large number of gram-positive bacteria
Description: as §1, §2, §3

mycobacteria = test: Antibiotic activity (summary of MIC table); assay type: cell-based
Description: as §1, §2, §3

COC1Cc2c(cc3c(c2O)C(=O)c2c(O)cccc2C3=O)C(=O)C1(C)O (stereo not drawn) [Antibiotic SM-173B]
MIC (Aspergillus niger): 100 µg/mL (≈ 271 µM) | MIC (Bacillus cereus): 6.26 µg/mL (≈ 17 µM) | MIC (Bacillus subtilis): 6.25 µg/mL (≈ 17 µM) | MIC (Echerichia coli): 100 µg/mL (≈ 271 µM) | MIC (Micrococcus flavus): 6.25 µg/mL (≈ 17 µM) | MIC (Mycobacterium avium): 6.25 µg/mL (≈ 17 µM) | MIC [1]: 3.13 µg/mL (≈ 8.5 µM) | MIC (Mycobacterium smegmatis): 3.13 µg/mL (≈ 8.5 µM) | MIC (Penicillium citrinum): 100 µg/mL (≈ 271 µM) | MIC (Sarcina lutea): 12.5 µg/mL (≈ 33.9 µM) | MIC [2]: 6.25 µg/mL (≈ 17 µM) | MIC [3]: 3.13 µg/mL (≈ 8.5 µM) | LD50 [4]: > 200 mg/kg | Solubility (Solubility; in methanol, ethanol, butanol, acetone, chloroform, ethyl acetate): Soluble | Solubility (Solubility; in n-hexane): poorly soluble | Solubility (Solubility; in petroleum ether): insoluble | Solubility (Solubility; in water): insoluble | Solubility (Solubility; in water under alkaline conditions): Soluble | acidity [5]: weakly acid | antibiotic activity (gram-positive bacteria): antibiotically active | antibiotic activity (mycobacteria): antibiotically active
